The source made the active and inactive calls. The rule behind the calls is not given here.
These compounds were tested against Induced myeloid leukemia cell differentiation protein Mcl-1 (Homo sapiens) (UniProt Q07820) (assay: Mcl-1/Bim interaction regulators – biochemical, bead-based flow cytometry, multiplexed, human, dose response (AID 1329)). Conditions: Bim peptide-Mcl-1 binding, MCF.
Chain of Induced myeloid leukemia cell differentiation protein Mcl-1 (Homo sapiens) (Q07820 whole entry, looked up): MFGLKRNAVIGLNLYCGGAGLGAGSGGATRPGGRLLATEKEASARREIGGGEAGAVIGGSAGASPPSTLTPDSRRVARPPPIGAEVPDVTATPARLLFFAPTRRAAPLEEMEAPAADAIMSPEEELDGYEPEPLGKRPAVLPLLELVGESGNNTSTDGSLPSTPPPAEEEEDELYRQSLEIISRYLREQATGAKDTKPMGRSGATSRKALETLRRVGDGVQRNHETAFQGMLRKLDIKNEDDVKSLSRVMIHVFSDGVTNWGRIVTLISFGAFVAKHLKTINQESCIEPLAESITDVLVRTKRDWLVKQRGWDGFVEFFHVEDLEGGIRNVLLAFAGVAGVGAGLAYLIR

Percent span, inactive:
O=C(NNC(=O)C12CC3CC(CC(C3)C1)C2)c1ccco1
CCOC(=O)C1=C(Cc2ccc(C)cc2)C(=O)c2ccccc2C1=O
CCN1C(=O)/C(=C\C=C2/C=CC=CN2CC)SC1=S
COc1cc(/C=C2/NC(=O)N(Cc3ccccc3F)C2=O)cc(OC)c1O
CCOC(=O)CCCNC(=O)c1cncc(O)c1
CC1Cc2ccccc2N1C(=O)c1ccc(N2CCCC2)c([N+](=O)[O-])c1 (centres undefined)
Cc1ccc(C(NC(=O)C(C)C)c2cc([N+](=O)[O-])c3cccnc3c2O)cc1 (centres undefined)
COc1ccc(N2CCN(C(CNS(=O)(=O)c3ccc4c(c3)OCCO4)c3ccco3)CC2)cc1 (centres undefined)
CCCCN(C(=O)CCC(=O)Nc1cc(C)on1)C(C(=O)NC(C)(C)C)c1cccc(OC)c1OC (centres undefined)
C=CS(=O)(=O)c1sc(Cl)c(N2CCOCC2)c1[N+](=O)[O-]
COc1ccc(S(=O)(=O)NCCOc2cccc3cccnc23)cc1OC
Cc1ccc(/C=C2/NC(=O)N(Cc3ccccc3)C2=O)o1
O=C(Oc1ccc(-c2cnc3ccccc3n2)cc1)c1cccc([N+](=O)[O-])c1
CCOC(=O)CSc1nnc(-c2cccc(Cl)c2)n1CC
CCOC(=O)c1cccc(Nc2ncnc3ccccc23)c1
CCOC(=O)CSC1=NC(=O)/C(=C\c2ccc(OC(C)=O)cc2)S1
N#CC(C#N)=C1C=CC=CN1/C(=C\c1ccco1)C(=O)c1ccccc1
Cn1c(=O)c2cc(S(=O)(=O)Nc3cc(C(=O)O)cc(C(=O)O)c3)ccc2n(C)c1=O
Cc1ccc(-c2nnc(Cc3ccc(Cl)cc3)o2)cc1
CCN1CCN(c2cc(C)c3cc(NC(=S)N4CCN(c5ccc(F)cc5)CC4)ccc3n2)CC1
C=CCSc1nc(N)c2c(C)c(C)sc2n1
COc1ccc(C(=O)Nc2ccc(NC(=O)c3cccs3)cc2)cc1Cl
Cc1ccc(-n2c(CSc3nc(C)cc(C)n3)nnc2SCC(=O)NCc2ccco2)cc1
COc1ccc(S(=O)(=O)NCCSc2ccccc2)cc1OC
Cc1ccnc(NS(=O)(=O)c2ccc(NS(=O)(=O)c3cccs3)cc2)n1
CC(C(=O)Nc1cc([N+](=O)[O-])ccc1Cl)N1CCN(c2ccc(O)cc2)CC1 (centres undefined)
COc1ccc(C)cc1Nc1ccc(C(=O)O)cc1[N+](=O)[O-]
Cc1ccccc1/C=N/Nc1ccnc2cc(Cl)ccc12
Cn1c(=O)[nH]c(=O)c2c1nc(N1CCOCC1)n2CCSc1nc2ccccc2[nH]1
CSc1ccccc1NC(=O)CN(C)CC(=O)Nc1ccc(N2CCOCC2)cc1
COc1ccccc1Cn1nnc2c(=O)[nH]c(C3CCN(C(=O)c4ccc(C)cc4)CC3)nc21
Brc1ccc2ncnc(Nc3ccc(N4CCOCC4)cc3)c2c1
Cc1nn(-c2ccc(Cl)c(Cl)c2)c(C)c1C(=O)O
Cc1occc1C(=O)NNC(=S)NCc1ccccc1
CCOc1ccc(C(=O)Nc2nnn(CC)n2)cc1
Cc1cc[n+]2cc(-c3cccc([N+](=O)[O-])c3)c(-c3cccc([N+](=O)[O-])c3)cc2c1
CCOc1ccc(C(=O)Nc2nnc(NC(=S)Nc3ccccc3)s2)cc1
OCCC1CN(Cc2nc3c(s2)CCCC3)CCN1Cc1ccsc1 (centres undefined)
Cc1nnc(Sc2cc(NCCCO)c([N+](=O)[O-])c3nonc23)s1
O=C(NC1=NCCS1)NC12CC3CC(CC(C3)C1)C2
Cc1c(N2C(=O)c3ccc4c5c(ccc(c35)C2=O)CC4)c(=O)n(-c2ccccc2)n1C
Cc1ccc(C(=O)N/N=C2/NC(=O)CC(C(=O)Nc3ccccc3)S2)cc1 (centres undefined)
Cc1ccc(-c2cc(-c3ccc(Cl)cc3)c(C#N)c(N)n2)o1
COc1cc(/C=C2\SC(=S)NC2=O)ccc1OS(=O)(=O)c1ccccc1
CCOC(=O)c1nc(Nc2ccc(Nc3ccccc3)cc2)c2ccccc2n1
CCCCc1ccc(NC(=S)NCc2ccc(OC)cc2)cc1
Cc1ccc(/C=C2/NC(=O)N(Cc3ccc(Br)cc3)C2=O)o1
O=C(NCc1ccco1)C1CC2CCC1C2 (centres undefined)
CCN(CC)S(=O)(=O)c1cccc(C(=O)N/N=C/c2ccc(O)c(O)c2O)c1
COc1cccc2c(SCC(=O)N/N=C/c3ccccc3)cc(C)nc12
O=C(C1=NN[C@@H]2C(=O)N(c3cccc(F)c3)C(=O)[C@H]12)c1ccc2ccccc2n1
Nc1ccc(Nc2nc(-c3ccncc3)cs2)cc1
Cc1nnc(Sc2cc(NCCO)c([N+](=O)[O-])c3nonc23)s1
Cc1cc(NC(=O)CCCC(=O)N(CC(=O)NC2CCCCC2)c2ccccc2)no1
COc1cc2c(cc1OC)C(c1ccccc1F)OC(=O)C2 (centres undefined)
CNc1nc2ccccc2n1/N=C/c1cccc(OC)c1OC
S=c1[nH]cc(-c2ccccc2)n1-c1ccccc1Cl
Cc1ccc(NC2=C(NC(=O)c3ccccc3)C(=O)c3ccccc3C2=O)cc1Cl
Cc1ccc(C)c(Oc2ncnc(N)c2[N+](=O)[O-])c1
Cc1cc(N2CCN(C)CC2)nc2ccc(NC(=S)N3CCN(c4cccc(Cl)c4)CC3)cc12
OC(CNC1CCCCC1)COCCOc1ccc(Br)cc1 (centres undefined)
O=C(Cn1cncc1-c1ccc([N+](=O)[O-])cc1)Nc1ccccc1F
CCCCNC(=O)c1ccc2nc(-c3ccco3)c(-c3ccco3)nc2c1
Cc1ccc(N=Cc2c(O)n(-c3ccc4c(c3)OCO4)c(=O)c3ccccc23)cc1
COc1ccc(NC(=O)c2ccc3c(c2)NC(=O)CS3)cc1S(=O)(=O)Nc1ccc(Br)cc1
Cc1cccc(N=C2NC(=O)/C(=C/C=C/c3ccco3)S2)c1C
C=CS(=O)c1sc(Cl)c(N2CCOCC2)c1[N+](=O)[O-] (centres undefined)
O=C(CNC(=O)c1ccco1)NCC(=O)OCc1ccccc1Br
Cc1ccc(S(=O)(=O)NC(=O)COc2ccccc2C)cc1
COc1ccc(NC(=O)/C(C#N)=C/c2c(C)nn(-c3ccc(F)cc3)c2Cl)cc1Cl
COc1cc(CNc2ccc(N3CCCC3)cc2)cc(Cl)c1OC
Cc1ccc(-c2ccc(/C=C3\SC(N4CCOCC4)=NC3=O)o2)cc1
Cc1ccc(-c2cc(C(=O)Nc3nccs3)c3ccccc3n2)o1
CC(C)NS(=O)(=O)c1ccc(OCC(=O)Nc2ccc(F)cc2)cc1
CCOC(=O)c1[nH]cnc1C(=O)NC(C)C
CCC(=O)OCCNc1cc(Sc2nccn2C)c2nonc2c1[N+](=O)[O-]
CCOc1cc(CNc2ccc(N3CCCCC3)cc2)cc(Br)c1OCC(=O)NC(C)(C)C
NC(=O)c1c(N)sc2c1CCCCC2
CCC(CC)C(=O)Nc1cccc(S(=O)(=O)c2cccc(NC(=O)C(CC)CC)c2)c1
CCOC(=O)C1CCN(C(=O)Nc2ccc3nc(-c4ccco4)c(-c4ccco4)nc3c2)CC1
O=C(NCC1CCCO1)c1ccc2c(=O)n(-c3ccc(F)cc3)c(=S)[nH]c2c1 (centres undefined)
O=C1C(Cl)=C(N2CCN(c3ccccc3[N+](=O)[O-])CC2)C(=O)c2ccccc21
CCN(CC)c1ccc(NC(=O)c2ccccc2Br)cc1S(=O)(=O)Nc1ccccc1OC
Cc1cccc(C(=O)N2CCC(c3nc(-c4ccc(S(=O)(=O)N5CCOCC5)cc4)no3)CC2)c1
COC(=O)c1c(NC(=O)COc2ncnc3ccccc23)sc(C)c1C
O=C(O)C1=C[C@H](C2CC2)C[C@H](OCCCCO)O1
O=C(Nc1ccc2nc(-c3ccco3)c(-c3ccco3)nc2c1)NC1CC1
Cc1cc(C)c[n+](-c2nc3ccccc3nc2C(=C=[N-])C#N)c1
CN1CCc2cccc3c2[C@H]1Cc1ccc(O)c(O)c1-3
